Results reported in article PMC9405847, “Design, Synthesis and Pharmacological Evaluation of Novel Conformationally Restricted N-arylpiperazine Derivatives Characterized as D2/D3 Receptor Ligands, Candidates for the Treatment of Neurodegenerative Diseases” (Biomolecules, 2022).

Assays:
D2R = biological target: T1, D2R (Rattus norvegicus, UniProt P61169); assay: Competition binding of [3H]-YM-09151-2 to D2-like receptors in rat striatal membranes
T1 construct: from tissue; host or cells: striatum of adult male Wistar rats
Experimental: Finally, to evaluate the selectivity of the substances, classic binding to D2-like receptors was performed using rat striatal membranes. Adult male Wistar rats (2.5–3 months) were killed by decapitation, their brains were immediately removed on ice and the striatum was dissected and stored in liquid nitrogen until use. This procedure was approved by the Institutional Ethical Committee for Animal Care from the Federal University of Rio de Janeiro (CEUA no. 052/19; 30 April 2019). The striatum was homogenized in a motorized Potter-type apparatus with a Teflon piston at 4 °C at 20 volumes per gram of tissue in ice-cold 50 mM Tris-HCl buffer (pH 7.4) containing 8 mM MgCl2 and 5 mM ethylenediaminetetraacetic acid (EDTA). The resulting suspension was ultracentrifuged at 48,000× g at 4 °C for 20 min. The pellet was resuspended in 20 volumes of the same buffer and incubated at 37 °C for 10 min to remove endogenous neurotransmitters. This suspension was cooled and ultracentrifuged at 48,000× g for 20 min at 4 °C [46]. The final pellet was resuspended and stored in liquid nitrogen until use.
In a medium containing the antagonist radioligand [^3H]-YM-09151-2 0.1 nM, 120 mM NaCl, 5 mM KCl, 5 mM MgCl2, 1.5 mM CaCl2, 1 mM EDTA and 50 mM Tris-HCl (pH 7.2 a 25 °C), 50 µg of […] striatum membrane was incubated in the dark (sodium light) for 60 min at 37 °C. Nonspecific binding was estimated using sulpiride (30 µM).

[1] = biological target: human D3 dopaminergic receptor (D3R) (Homo sapiens, UniProt P35462); assay: Competition binding of [3H]-spiperone and GTP-shift (functional binding) in membranes of recombinant Chem-1 cells; settings: for IC50: D3R, [3H]-spiperone 0.5 nM, 95% confidence interval in parentheses; for Na+-Shift (II/I) D3R: IC50 in NaCl + GTP (II) divided by IC50 in MgCl2 + CaCl2 (I); for Intrinsic Efficacy at D3R: classified from the Na+-shift (GTP-shift assay)
[2] = IC50 (MgCl2 + CaCl2), medium I: 5 mM MgCl2 and 1.5 mM CaCl2
[3] = IC50 (NaCl + GTP), medium II: 154 mM NaCl and 1 mM GTP

T1 sequence (P61169 whole entry): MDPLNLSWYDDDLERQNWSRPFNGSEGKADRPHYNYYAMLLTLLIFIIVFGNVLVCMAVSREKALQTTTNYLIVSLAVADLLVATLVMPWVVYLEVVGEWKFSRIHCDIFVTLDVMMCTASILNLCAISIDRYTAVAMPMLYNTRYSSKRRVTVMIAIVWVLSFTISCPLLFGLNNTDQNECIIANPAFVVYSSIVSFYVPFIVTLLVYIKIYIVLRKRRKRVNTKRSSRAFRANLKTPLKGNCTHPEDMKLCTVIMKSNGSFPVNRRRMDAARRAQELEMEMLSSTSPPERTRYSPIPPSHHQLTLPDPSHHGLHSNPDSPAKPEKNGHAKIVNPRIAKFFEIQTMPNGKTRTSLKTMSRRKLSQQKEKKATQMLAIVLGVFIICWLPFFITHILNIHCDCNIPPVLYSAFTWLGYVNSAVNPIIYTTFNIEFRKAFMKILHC
Sequence of human D3 dopaminergic receptor (D3R) (P35462 whole entry): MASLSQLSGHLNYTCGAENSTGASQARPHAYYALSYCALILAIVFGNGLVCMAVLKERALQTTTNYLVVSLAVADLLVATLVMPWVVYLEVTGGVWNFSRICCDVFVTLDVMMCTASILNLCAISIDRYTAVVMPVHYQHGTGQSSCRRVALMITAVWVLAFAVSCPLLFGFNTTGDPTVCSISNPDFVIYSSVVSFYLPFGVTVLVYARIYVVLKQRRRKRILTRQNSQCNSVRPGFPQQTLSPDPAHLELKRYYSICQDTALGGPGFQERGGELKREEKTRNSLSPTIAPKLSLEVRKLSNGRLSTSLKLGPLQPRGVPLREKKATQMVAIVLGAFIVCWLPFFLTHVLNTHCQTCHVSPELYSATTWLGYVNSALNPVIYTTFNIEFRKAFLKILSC

Compound | Ki (D2R) | melting point | IC50 [1, 2] | IC50 [1, 3] | Na+-Shift (II/I) D3R [1] | Intrinsic Efficacy at D3R [1]
Cc1cc2c(cc1S(=O)(=O)Nc1ccc(CN3CCN(c4ccccc4)CC3)cc1)OCO2 [Compound 5a, 6-Methyl-N-(4-((4-phenylpiperazin-1-yl)methyl)phenyl) Benzo [d] [1,3] Dioxole-5-sulfonamide] | 440 nM | 154 to 156 °C | 1100 nM | 1200 nM | 1.1 | antagonist
COc1ccccc1N1CCN(Cc2ccc(NS(=O)(=O)c3cc4c(cc3C)OCO4)cc2)CC1 [Compound 5b, N-(4-((4-(2-Methoxyphenyl)piperazin-1-yl)methyl)phenyl)-6-methylbenzo [d] [1,3] Dioxole-5-sulfonamide] | 80 nM | 183 to 185 °C | 760 nM | 290 nM | 0.4 | weak inverse agonist
Cc1cc2c(cc1S(=O)(=O)Nc1ccc(CN3CCN(c4cccc(Cl)c4Cl)CC3)cc1)OCO2 [Compound 5c, N-(4-((4-(2,3-Dichlorophenyl)piperazin-1-yl)methyl)phenyl)-6-methylbenzo [d] [1,3] Dioxole-5-sulfonamide] | 400 nM | 192 to 194 °C | 750 nM | 780 nM | 1 | antagonist
O=S(=O)(Nc1ccc(CN2CCN(c3ccccc3)CC2)cc1)c1ccc2c(c1)OCO2 [Compound 5d, N-(4-((4-Phenylpiperazin-1-yl) Methyl) Phenyl) Benzo [d] [1,3] Dioxole-5-Sulfonamide] | 820 nM | 178 to 180 °C | 420 nM | 990 nM | 2.4 | partial agonist
COc1ccccc1N1CCN(Cc2ccc(NS(=O)(=O)c3ccc4c(c3)OCO4)cc2)CC1 [Compound 5e, N-(4-((4-(2-Methoxyphenyl)piperazin-1-yl)methyl)phenyl) Benzo [d] [1,3] Dioxole-5-sulfonamide] | 100 nM | 149 to 151 °C | 230 nM | 200 nM | 0.9 | antagonist
O=S(=O)(Nc1ccc(CN2CCN(c3cccc(Cl)c3Cl)CC2)cc1)c1ccc2c(c1)OCO2 [Compound 5f, N-(4-((4-(2,3-Dichlorophenyl)piperazin-1-yl)methyl)phenyl) Benzo [d] [1,3] Dioxole-5-sulfonamide] | 200 nM | 163 to 166 °C | 110 nM | 200 nM | 1.8 | partial agonist
